From the supplement of paper PMC10307832

Compound: N#CC1(c2ccc(NC(=O)c3cccnc3NCc3ccncc3)cc2)CCCC1 [Apatinib] + O=C(CCCCCCC(=O)Nc1ccccc1)NO [Vorinostat] (partner 1 µM)
Assay: relative viability (nuclei count vs DMSO), 5 days (fraction); higher = more cells survive
Conditions: first compound 0.08 µM
In short: (§1)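 Lung cancer cell lines in 1536-well plates got either a single drug or a fixed anchor-drug dose together with five library-drug doses (not always all listed) in √10 steps, by pin tool, on the day after seeding. Nuclei were counted after 5 days, and relative viability is the treated-to-vehicle ratio of nuclei counts. Values are medians of duplicate plates.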

Cell Line	relative viability
NCI-H647	0.596
NCI-H650	0.494
NCI-H661	0.814
NCI-H838	0.778
NCI-H1355	0.677
NCI-H1437	0.854
NCI-H1650	0.564
NCI-H1651	0.583
NCI-H1666	1.03
NCI-H1734	0.935
NCI-H1755	0.846
NCI-H1915	0.578
NCI-H1975	0.761
NCI-H1993	0.804

Same assay, conditions: first compound 0.253 µM

Cell Line	relative viability
NCI-H647	0.868
NCI-H650	0.422
NCI-H661	0.75
NCI-H838	0.784
NCI-H1355	0.703
NCI-H1437	0.928
NCI-H1650	0.559
NCI-H1651	0.522
NCI-H1666	1.03
NCI-H1734	0.947
NCI-H1755	0.7
NCI-H1915	0.519
NCI-H1975	0.696
NCI-H1993	0.726

Same assay, conditions: first compound 0.8 µM

Cell Line	relative viability
NCI-H647	0.473
NCI-H650	0.391
NCI-H661	0.739
NCI-H838	0.702
NCI-H1355	0.616
NCI-H1437	0.71
NCI-H1650	0.513
NCI-H1651	0.528
NCI-H1666	1.05
NCI-H1734	0.773
NCI-H1755	0.783
NCI-H1915	0.495
NCI-H1975	0.641
NCI-H1993	0.948

Same assay, conditions: first compound 2.53 µM

Cell Line	relative viability
NCI-H647	0.669
NCI-H650	0.264
NCI-H661	0.722
NCI-H838	0.652
NCI-H1355	0.515
NCI-H1437	0.554
NCI-H1650	0.412
NCI-H1651	0.48
NCI-H1666	0.976
NCI-H1734	0.727
NCI-H1755	0.705
NCI-H1915	0.37
NCI-H1975	0.634
NCI-H1993	0.788

Same assay, conditions: first compound 8 µM

Cell Line	relative viability
NCI-H647	0.343
NCI-H650	0.42
NCI-H661	0.716
NCI-H838	0.722
NCI-H1355	0.569
NCI-H1437	0.534
NCI-H1650	0.489
NCI-H1651	0.577
NCI-H1666	0.915
NCI-H1734	0.728
NCI-H1755	0.586
NCI-H1915	0.314
NCI-H1975	0.557
NCI-H1993	0.727

Compound: N#CC1(c2ccc(NC(=O)c3cccnc3NCc3ccncc3)cc2)CCCC1 [Apatinib] + Cc1nc(Nc2ncc(C(=O)Nc3c(C)cccc3Cl)s2)cc(N2CCN(CCO)CC2)n1 [Dasatinib] (partner 0.075 µM)
Assay: as above
Conditions: first compound 0.08 µM
In short: as §1

Cell Line	relative viability
NCI-H647	0.506
NCI-H650	0.37
NCI-H661	1.12
NCI-H838	0.353
NCI-H1355	0.682
NCI-H1437	0.28
NCI-H1651	0.386
NCI-H1666	0.931
NCI-H1734	0.547
NCI-H1755	0.524
NCI-H1915	0.323
NCI-H1975	0.469
NCI-H1993	0.63

Same assay, conditions: first compound 0.253 µM

Cell Line	relative viability
NCI-H647	0.253
NCI-H650	0.435
NCI-H661	0.957
NCI-H838	0.303
NCI-H1355	0.791
NCI-H1437	0.417
NCI-H1650	0.346
NCI-H1651	0.492
NCI-H1666	0.803
NCI-H1734	0.521
NCI-H1755	0.484
NCI-H1915	0.32
NCI-H1975	0.313
NCI-H1993	0.663

Same assay, conditions: first compound 0.8 µM

Cell Line	relative viability
NCI-H647	0.175
NCI-H650	0.483
NCI-H661	0.803
NCI-H838	0.272
NCI-H1355	0.687
NCI-H1437	0.373
NCI-H1650	0.341
NCI-H1651	0.387
NCI-H1666	0.796
NCI-H1734	0.439
NCI-H1755	0.451
NCI-H1915	0.293
NCI-H1975	0.262
NCI-H1993	0.558

Same assay, conditions: first compound 2.53 µM

Cell Line	relative viability
NCI-H647	0.169
NCI-H650	0.444
NCI-H661	0.702
NCI-H838	0.328
NCI-H1355	0.621
NCI-H1437	0.266
NCI-H1650	0.23
NCI-H1651	0.251
NCI-H1666	0.703
NCI-H1734	0.424
NCI-H1755	0.394
NCI-H1915	0.321
NCI-H1975	0.26
NCI-H1993	0.538

Same assay, conditions: first compound 8 µM

Cell Line	relative viability
NCI-H647	0.152
NCI-H650	0.403
NCI-H661	0.708
NCI-H838	0.268
NCI-H1355	0.614
NCI-H1437	0.157
NCI-H1650	0.262
NCI-H1651	0.365
NCI-H1666	0.713
NCI-H1734	0.399
NCI-H1755	0.399
NCI-H1915	0.36
NCI-H1975	0.281
NCI-H1993	0.503

Compound: N#CC1(c2ccc(NC(=O)c3cccnc3NCc3ccncc3)cc2)CCCC1 [Apatinib] + CC(C)C[C@H](NC(=O)[C@H](Cc1ccccc1)NC(=O)c1cnccn1)B(O)O [Bortezomib] (partner 0.002 µM)
Assay: as above
Conditions: first compound 0.08 µM
In short: as §1

Cell Line	relative viability
NCI-H647	1.27
NCI-H650	0.888
NCI-H661	0.935
NCI-H838	0.931
NCI-H1355	1.2
NCI-H1437	0.52
NCI-H1650	0.19
NCI-H1651	0.799
NCI-H1666	0.829
NCI-H1734	0.98
NCI-H1755	1.02
NCI-H1915	0.953
NCI-H1975	0.466
NCI-H1993	1.2

Same assay, conditions: first compound 0.253 µM

Cell Line	relative viability
NCI-H647	1.33
NCI-H650	0.835
NCI-H661	0.855
NCI-H838	0.963
NCI-H1355	1.16
NCI-H1437	0.526
NCI-H1650	0.219
NCI-H1651	0.955
NCI-H1666	1.02
NCI-H1734	1.11
NCI-H1755	0.959
NCI-H1915	0.984
NCI-H1975	0.417
NCI-H1993	1.11

Same assay, conditions: first compound 0.8 µM

Cell Line	relative viability
NCI-H647	1.01
NCI-H650	0.834
NCI-H661	0.685
NCI-H838	0.57
NCI-H1355	1.16
NCI-H1437	0.461
NCI-H1650	0.198
NCI-H1651	0.922
NCI-H1666	0.824
NCI-H1734	0.947
NCI-H1755	0.94
NCI-H1915	0.956
NCI-H1975	0.314
NCI-H1993	0.781

Same assay, conditions: first compound 2.53 µM

Cell Line	relative viability
NCI-H647	0.736
NCI-H650	0.543
NCI-H661	0.764
NCI-H838	0.887
NCI-H1355	1.14
NCI-H1437	0.434
NCI-H1650	0.184
NCI-H1651	0.912
NCI-H1666	0.785
NCI-H1734	0.764
NCI-H1755	0.945
NCI-H1915	0.812
NCI-H1975	0.323
NCI-H1993	1

Same assay, conditions: first compound 8 µM

Cell Line	relative viability
NCI-H647	0.823
NCI-H650	0.754
NCI-H661	0.584
NCI-H838	0.712
NCI-H1355	1.08
NCI-H1437	0.439
NCI-H1650	0.188
NCI-H1651	0.861
NCI-H1666	0.825
NCI-H1734	0.759
NCI-H1755	0.925
NCI-H1915	0.924
NCI-H1975	0.388
NCI-H1993	1.07

Compound: CN(C)C(=N)NC(=N)N [Metformin] + Nc1nc2[nH]cc(CCc3ccc(C(=O)N[C@@H](CCC(=O)O)C(=O)O)cc3)c2c(=O)[nH]1 [Pemetrexed] (partner 0.2 µM)
Assay: as above
Conditions: first compound 10 µM
In short: as §1

Cell Line	relative viability
NCI-H647	0.127
NCI-H650	0.846
NCI-H661	0.9
NCI-H838	0.28
NCI-H1355	0.942
NCI-H1437	0.347
NCI-H1650	0.398
NCI-H1651	0.445
NCI-H1666	0.825
NCI-H1734	0.49
NCI-H1755	0.416
NCI-H1975	0.277
NCI-H1993	0.521

Same assay, conditions: first compound 31.62 µM

Cell Line	relative viability
NCI-H647	0.137
NCI-H650	0.993
NCI-H661	0.934
NCI-H838	0.266
NCI-H1355	1.02
NCI-H1437	0.336
NCI-H1650	0.428
NCI-H1651	0.62
NCI-H1666	0.862
NCI-H1734	0.418
NCI-H1755	0.443
NCI-H1915	0.438
NCI-H1975	0.296
NCI-H1993	0.507

Same assay, conditions: first compound 100 µM

Cell Line	relative viability
NCI-H647	0.16
NCI-H650	0.878
NCI-H661	0.877
NCI-H838	0.278
NCI-H1355	1.02
NCI-H1437	0.343
NCI-H1650	0.388
NCI-H1651	0.608
NCI-H1666	0.854
NCI-H1734	0.461
NCI-H1755	0.392
NCI-H1915	0.404
NCI-H1975	0.317
NCI-H1993	0.588

Same assay, conditions: first compound 316.23 µM

Cell Line	relative viability
NCI-H647	0.146
NCI-H650	0.941
NCI-H661	0.858
NCI-H838	0.266
NCI-H1355	1
NCI-H1437	0.352
NCI-H1650	0.404
NCI-H1651	0.53
NCI-H1666	0.871
NCI-H1734	0.456
NCI-H1755	0.34
NCI-H1915	0.379
NCI-H1975	0.269
NCI-H1993	0.558

Same assay, conditions: first compound 1000 µM

Cell Line	relative viability
NCI-H647	0.148
NCI-H650	1.1
NCI-H661	0.879
NCI-H838	0.271
NCI-H1355	0.94
NCI-H1437	0.317
NCI-H1650	0.301
NCI-H1651	0.599
NCI-H1666	0.928
NCI-H1734	0.455
NCI-H1755	0.376
NCI-H1915	0.435
NCI-H1975	0.289
NCI-H1993	0.633
